Measurements from patent publication US20230381157A1, “RIFABUTIN FOR THE TREATMENT OF ACINETOBACTER BAUMANNII” (University of Southern California, priority 2018, published 2023).
Where two headings read alike, the source gives them in different places.

Test system: A. baumannii AB5075 transposon disruption mutants
Assay: microbe, parasite or virus in culture
Assay type: cell-based, Acinetobacter baumannii
Conditions: for MIC: Acinetobacter baumannii

CO[C@H]1/C=C/O[C@@]2(C)Oc3c(C)c(O)c4c(c3C2=O)C2=NC3(CCN(CC(C)C)CC3)NC2=C(NC(=O)/C(C)=C\C=C\[C@H](C)[C@H](O)[C@@H](C)[C@@H](O)[C@@H](C)[C@H](OC(C)=O)[C@@H]1C)C4=O [rifabutin]
< 0.05 µg/mL: MIC (read-out: Rifabutin MIC, AB00188, disrupted gene aroP, RPMI) | MIC (read-out: Rifabutin MIC, AB00190, disrupted gene aroP, RPMI) | MIC (read-out: Rifabutin MIC, AB00215, disrupted gene tryP, RPMI) | MIC (read-out: Rifabutin MIC, AB00216, disrupted gene tryP, RPMI) | MIC (read-out: Rifabutin MIC, AB02204, disrupted gene aroP, RPMI) | MIC (read-out: Rifabutin MIC, AB02205, disrupted gene aroP, RPMI) | MIC (read-out: Rifabutin MIC, AB03015, disrupted gene aroP, RPMI) | MIC (read-out: Rifabutin MIC, AB03608, disrupted gene hisJ, RPMI) | MIC (read-out: Rifabutin MIC, AB03612, disrupted gene hisM, RPMI) | MIC (read-out: Rifabutin MIC, AB03616, disrupted gene hisM, RPMI) | MIC (read-out: Rifabutin MIC, AB03618, disrupted gene hisM, RPMI) | MIC (read-out: Rifabutin MIC, AB5075-UW (parent strain), RPMI) | MIC (read-out: Rifabutin MIC, AB06105, disrupted gene aroP, RPMI) | MIC (read-out: Rifabutin MIC, AB06383, disrupted gene hisJ, RPMI) | MIC (read-out: Rifabutin MIC, AB06386, disrupted gene hisP, RPMI) | MIC (read-out: Rifabutin MIC, AB06392, disrupted gene hisP, RPMI) | MIC (read-out: Rifabutin MIC, AB07354, disrupted gene aroP, RPMI) | MIC (read-out: Rifabutin MIC, AB07356, disrupted gene aroP, RPMI) | MIC (read-out: Rifabutin MIC, AB07813, disrupted gene mtr, RPMI) | MIC (read-out: Rifabutin MIC, AB09979, disrupted gene aroP, RPMI) | MIC (read-out: Rifabutin MIC, AB09980, disrupted gene tryP, RPMI) | MIC (read-out: Rifabutin MIC, AB09982, disrupted gene tryP, RPMI)
0.78 µg/mL: Rifabutin MIC (AB02034, ABUW_0745 (hypothetical protein), MHII) | Rifabutin MIC (AB07566, ABUW_2893 (hypothetical protein), MHII) | Rifabutin MIC (AB07567, ABUW_2893, MHII) | Rifabutin MIC (AB09112, ABUW_3470 (Zn-dependent hydrolase), MHII) | Rifabutin MIC (AB09114, ABUW_3470, MHII) | MIC (read-out: Rifabutin MIC, AB06386, disrupted gene hisP, MHII) | MIC (read-out: Rifabutin MIC, AB06392, disrupted gene hisP, MHII) | MIC (read-out: Rifabutin MIC, AB09979, disrupted gene aroP, MHII)
0.05 µg/mL: Rifabutin MIC (AB00188, disrupted gene aroP, RPMI, listed as RBT) | Rifabutin MIC (AB00190, disrupted gene aroP, RPMI, listed as RBT) | Rifabutin MIC (AB00215, disrupted gene tryP, RPMI, listed as RBT) | Rifabutin MIC (AB00216, disrupted gene tryP, RPMI, listed as RBT) | Rifabutin MIC (AB01188, ABUW_0449 (hypothetical protein), RPMI) | Rifabutin MIC (AB01192, ABUW_0449, RPMI) | Rifabutin MIC (AB01494, ABUW_0559 (putative phage-related membrane protein), RPMI) | Rifabutin MIC (AB01495, ABUW_0559, RPMI) | Rifabutin MIC (AB02034, ABUW_0745 (hypothetical protein), RPMI) | Rifabutin MIC (AB02035, ABUW_0745, RPMI) | Rifabutin MIC (AB02204, disrupted gene aroP, RPMI, listed as RBT) | Rifabutin MIC (AB02205, disrupted gene aroP, RPMI, listed as RBT) | Rifabutin MIC (AB02891, ABUW_1069 (NADH dehydrogenase), RPMI) | Rifabutin MIC (AB02892, ABUW_1069, RPMI) | Rifabutin MIC (AB03015, disrupted gene aroP, RPMI, listed as RBT) | Rifabutin MIC (AB03608, disrupted gene hisJ, RPMI, listed as RBT) | Rifabutin MIC (AB03612, disrupted gene hisM, RPMI, listed as RBT) | Rifabutin MIC (AB03616, disrupted gene hisM, RPMI, listed as RBT) | Rifabutin MIC (AB03618, disrupted gene hisM, RPMI, listed as RBT) | Rifabutin MIC (AB04576, ABUW_1741 (outer membrane protein assembly factor BamA), RPMI) | Rifabutin MIC (AB04593, ABUW_1750 (HAD-superfamiy hydrolase), RPMI) | Rifabutin MIC (AB04594, ABUW_1750, RPMI) | Rifabutin MIC (AB04749, ABUW_1817 (putative peroxidase(alpha/beta hydrolase)), RPMI) | Rifabutin MIC (AB04750, ABUW_1817, RPMI) | Rifabutin MIC (AB5075-UW (parent strain), RPMI, listed as RBT) | Rifabutin MIC (AB05089, ABUW_1933 (NADP-dependent fatty aldehyde dehydrogenase), RPMI) | Rifabutin MIC (AB05348, ABUW_2057 (alcohol dehydrogenase), RPMI) | Rifabutin MIC (AB05361, ABUW_2062 (phospholipase D family protein), RPMI) | Rifabutin MIC (AB05362, ABUW_2062, RPMI) | Rifabutin MIC (AB05479, ABUW_2100 (LysR family transcriptional regulator), RPMI) | Rifabutin MIC (AB05480, ABUW_2100, RPMI) | Rifabutin MIC (AB05756, ABUW_2194 (acyl-CoA dehydrogenase), RPMI) | Rifabutin MIC (AB05757, ABUW_2194, RPMI) | Rifabutin MIC (AB05837, ABUW_2228 (TonB-dependent receptor), RPMI) | Rifabutin MIC (AB05838, ABUW_2228, RPMI) | Rifabutin MIC (AB06047, ABUW_2307 (biotin synthase), MHII) | Rifabutin MIC (AB06047, ABUW_2307 (biotin synthase), RPMI) | Rifabutin MIC (AB06049, ABUW_2307, MHII) | Rifabutin MIC (AB06049, ABUW_2307, RPMI) | Rifabutin MIC (AB06076, ABUW_2318 (cytosine permease), RPMI) | Rifabutin MIC (AB06077, ABUW_2318, RPMI) | Rifabutin MIC (AB06089, ABUW_2322 (integrase), RPMI) | Rifabutin MIC (AB06091, ABUW_2322, RPMI) | Rifabutin MIC (AB06105, disrupted gene aroP, RPMI, listed as RBT) | Rifabutin MIC (AB06383, disrupted gene hisJ, RPMI, listed as RBT) | Rifabutin MIC (AB06386, disrupted gene hisP, RPMI, listed as RBT) | Rifabutin MIC (AB06392, disrupted gene hisP, RPMI, listed as RBT) | Rifabutin MIC (AB06694, ABUW_2539 (IS4 family transposase), RPMI) | Rifabutin MIC (AB06695, ABUW_2539, RPMI) | Rifabutin MIC (AB06731, ABUW_2557 (hypothetical protein(epoxyqueuosine reductase QueH)), RPMI) | Rifabutin MIC (AB06732, ABUW_2557, RPMI) | Rifabutin MIC (AB06821, ABUW_2586 (allophanate hydrolase), RPMI) | Rifabutin MIC (AB06822, ABUW_2586, RPMI) | Rifabutin MIC (AB07354, disrupted gene aroP, RPMI, listed as RBT) | Rifabutin MIC (AB07356, disrupted gene aroP, RPMI, listed as RBT) | Rifabutin MIC (AB07566, ABUW_2893 (hypothetical protein), RPMI) | Rifabutin MIC (AB07567, ABUW_2893, RPMI) | Rifabutin MIC (AB07813, disrupted gene mtr, RPMI, listed as RBT) | Rifabutin MIC (AB09112, ABUW_3470 (Zn-dependent hydrolase), RPMI) | Rifabutin MIC (AB09114, ABUW_3470, RPMI) | Rifabutin MIC (AB09979, disrupted gene aroP, RPMI, listed as RBT) | Rifabutin MIC (AB09980, disrupted gene tryP, RPMI, listed as RBT) | Rifabutin MIC (AB09982, disrupted gene tryP, RPMI, listed as RBT) | Rifabutin MIC (AB10057, ABUW_3811 (DID), RPMI) | Rifabutin MIC (AB10058, ABUW_3811, RPMI)
1.56 µg/mL: Rifabutin MIC (AB01188, ABUW_0449 (hypothetical protein), MHII) | Rifabutin MIC (AB01192, ABUW_0449, MHII) | Rifabutin MIC (AB02035, ABUW_0745, MHII) | Rifabutin MIC (AB04576, ABUW_1741 (outer membrane protein assembly factor BamA), MHII) | Rifabutin MIC (AB05089, ABUW_1933 (NADP-dependent fatty aldehyde dehydrogenase), MHII) | Rifabutin MIC (AB05348, ABUW_2057 (alcohol dehydrogenase), MHII) | Rifabutin MIC (AB05361, ABUW_2062 (phospholipase D family protein), MHII) | Rifabutin MIC (AB05362, ABUW_2062, MHII) | Rifabutin MIC (AB05480, ABUW_2100, MHII) | Rifabutin MIC (AB05674, ABUW_2165, RPMI) | Rifabutin MIC (AB05756, ABUW_2194 (acyl-CoA dehydrogenase), MHII) | Rifabutin MIC (AB06077, ABUW_2318, MHII) | MIC (read-out: Rifabutin MIC, AB00216, disrupted gene tryP, MHII) | MIC (read-out: Rifabutin MIC, AB07356, disrupted gene aroP, MHII)
3.13 µg/mL: Rifabutin MIC (AB01494, ABUW_0559 (putative phage-related membrane protein), MHII) | Rifabutin MIC (AB02891, ABUW_1069 (NADH dehydrogenase), MHII) | Rifabutin MIC (AB04593, ABUW_1750 (HAD-superfamiy hydrolase), MHII) | Rifabutin MIC (AB04594, ABUW_1750, MHII) | Rifabutin MIC (AB04749, ABUW_1817 (putative peroxidase(alpha/beta hydrolase)), MHII) | Rifabutin MIC (AB04750, ABUW_1817, MHII) | Rifabutin MIC (AB05479, ABUW_2100 (LysR family transcriptional regulator), MHII) | Rifabutin MIC (AB05672, ABUW_2165, RPMI) | Rifabutin MIC (AB05673, ABUW_2165, MHII) | Rifabutin MIC (AB05673, ABUW_2165, RPMI) | Rifabutin MIC (AB05674, ABUW_2165, MHII) | Rifabutin MIC (AB05837, ABUW_2228 (TonB-dependent receptor), MHII) | Rifabutin MIC (AB05838, ABUW_2228, MHII) | Rifabutin MIC (AB06089, ABUW_2322 (integrase), MHII) | Rifabutin MIC (AB06694, ABUW_2539 (IS4 family transposase), MHII) | Rifabutin MIC (AB06695, ABUW_2539, MHII) | Rifabutin MIC (AB06731, ABUW_2557 (hypothetical protein(epoxyqueuosine reductase QueH)), MHII) | Rifabutin MIC (AB06821, ABUW_2586 (allophanate hydrolase), MHII) | Rifabutin MIC (AB06822, ABUW_2586, MHII) | Rifabutin MIC (AB10057, ABUW_3811 (DID), MHII) | Rifabutin MIC (AB10058, ABUW_3811, MHII) | MIC (read-out: Rifabutin MIC, AB00188, disrupted gene aroP, MHII) | MIC (read-out: Rifabutin MIC, AB02205, disrupted gene aroP, MHII) | MIC (read-out: Rifabutin MIC, AB03608, disrupted gene hisJ, MHII) | MIC (read-out: Rifabutin MIC, AB03612, disrupted gene hisM, MHII) | MIC (read-out: Rifabutin MIC, AB06105, disrupted gene aroP, MHII) | MIC (read-out: Rifabutin MIC, AB09980, disrupted gene tryP, MHII)
25 µg/mL: MIC (read-out: Rifabutin MIC, AB07813, disrupted gene mtr, MHII)
6.25 µg/mL: Rifabutin MIC (AB01495, ABUW_0559, MHII) | Rifabutin MIC (AB02892, ABUW_1069, MHII) | Rifabutin MIC (AB05672, ABUW_2165, MHII) | Rifabutin MIC (AB05757, ABUW_2194, MHII) | Rifabutin MIC (AB06091, ABUW_2322, MHII) | Rifabutin MIC (AB06732, ABUW_2557, MHII) | MIC (read-out: Rifabutin MIC, AB00190, disrupted gene aroP, MHII) | MIC (read-out: Rifabutin MIC, AB00215, disrupted gene tryP, MHII) | MIC (read-out: Rifabutin MIC, AB02204, disrupted gene aroP, MHII) | MIC (read-out: Rifabutin MIC, AB03015, disrupted gene aroP, MHII) | MIC (read-out: Rifabutin MIC, AB03616, disrupted gene hisM, MHII) | MIC (read-out: Rifabutin MIC, AB03618, disrupted gene hisM, MHII) | MIC (read-out: Rifabutin MIC, AB5075-UW (parent strain), MHII) | MIC (read-out: Rifabutin MIC, AB06383, disrupted gene hisJ, MHII) | MIC (read-out: Rifabutin MIC, AB07354, disrupted gene aroP, MHII) | MIC (read-out: Rifabutin MIC, AB09982, disrupted gene tryP, MHII)
